Laboratory results: PMC8121805, “Discovery of first-in-class inhibitors of ASH1L histone methyltransferase with anti-leukemic activity” (Nature Communications, 2021)
Where “and” joins values, the source holds several entries; their conditions need not be identical. Equal entries are not always repeated.

What was measured:
[1] = tested on: K562 cells; assay: Annexin V apoptosis assay (flow cytometry); assay type: cell-based, human; conditions: for K562 % Annexin V/PI+ cells: 7 days
[2] = tested on: MV4;11 cells; assay: RNA-seq global gene expression; assay type: cell-based, human
Experimental: Total RNA was prepared from cells collected after 7 days of treatment using RNeasy Mini Kit (74106, Qiagen). 2 µg of total RNA for each sample, as quantified using Nanodrop 2000 UV-Vis spectrophotometer, was submitted to the Next-Generation Sequencing Services of the University of Michigan for RNA Sequencing on the Illumina NovaSeq (S4) Sequencer. ERCC RNA Spike-In Mix (4456740, Invitrogen™) was provided to control for variability in RNA expression.
For analysis of RNA-seq data, Fastq generation was performed using Illumina’s bcl2fastq2 software (v2.17). The cutadapt [https://cutadapt.readthedocs.org/en/stable/] and FastQC [http://www.bioinformatics.babraham.ac.uk/projects/fastqc/] tools wrapped in Trim Galore [http://www.bioinformatics.babraham.ac.uk/projects/trim_galore/] were used to trim low quality bases (Q < 20) and adapter for raw sequences. Reads with length <20 bp were removed after trimming. […] Duplicated reads for pair-end data were removed by SAMtools (v1.5)[41]. Aligned reads were assembled using Cufflinks (v2.2.1) and assembled transcriptome catalog was used as an input for Cuffdiff2[42] to determine gene expression levels (FPKM, Fragments Per Kilobase per Million mapped reads) and differential expression between conditions using default options. Genes with p < 0.05 and fold-change >2 up or down were considered as differentially expressing genes to prepare the Volcano plot, which was generated using the “ggplot2” R package. Gene set analysis was performed and enrichment plots were generated using the “fgsea” package, with the test statistic generated by Cuffdiff2 used to rank genes for gene set enrichment analysis. Fgsea was run using the C2, C5, and C6 curated datasets from MSigDB[44]. Heatmaps for the top 20 ranked genes in the Leading Edge from a given enrichment analysis were generated with the “gplots” package [https://cran.r-project.org/web/packages/gplots/index.html].

[3] = tested on: luciferase-expressing MV4;11 cells in NSG mice; assay: MV4;11 xenotransplantation bioimaging model (bioluminescence); assay type: in vivo, mouse; conditions: for average radiance: individual mice, 30 mg/kg q.d. i.p.
[4] = Effect on normal hematopoiesis: flow cytometry of myeloid, B- and T-cells in blood; assay type: in vivo
Excerpt: width, MPV – Mean platelet volume). n = 9 mice / group. Mean +/- SD. b) Flow cytometry analysis […]
assess the effect on myeloid, B- and T-cells. Statistical significance calculated us ing unpaired 2-tailed t-test. n = 9 mice / group. Mean +/- SD. ns - not significant. (c) Representative gating strategy corresponding to the Supplementary Figure 12b for quantification of myeloid, B- and T-cells in blood samples of mice treated with vehicle or AS-99. SSC-A – side scatter area; FSC-A – forward scatter area; FSC-H – forward scatter height.

[5] = PK studies in mice
Experimental: The LC-MS/MS method consisted of a Shimadzu UFLC 20 A system and chromatographic separation of test compound was achieved using Waters XBridge C18 column (5 cm × 2.1 mm, 3.5 µm). An AB Sciex QTrap 5500 mass spectrometer equipped with an electrospray ionization source (ABI-Sciex, Toronto, Canada) in the positive-ion multiple reaction monitoring (MRM) mode was used for detection. All pharmacokinetic parameters were calculated by noncompartmental methods using WinNonlin® version 3.2 (Pharsight Corporation, Mountain View, CA, USA). Parameters are presented as a mean ± standard deviation (SD).
CL (clearance), AUC (area under the curve),
Cmax (maximum concentration achieved), Tmax (time at which maximum concentration was
achieved), were calculated by noncompartmental methods using WinNonlin® software version

[6] = target: EZH2 (Homo sapiens, UniProt Q15910); assay: HMT selectivity panel; conditions: EZH2, 50 µM compound
Experimental: (§1) mM DTT and 0.01% Triton X-100 was used in experiments containing core histone.
experiments containing nucleosome.
G9a 5 core histone 0.05 mg/mL 1
GLP 5 core histone 0.05 mg/mL 1

[7] = tested on: MLL4; assay: HMT selectivity panel; conditions: MLL4, 50 µM compound
Excerpt: as §1

[8] = target: NSD1 (Homo sapiens, UniProt Q96L73); assay: HMT selectivity panel; conditions: NSD1, 50 µM compound
Excerpt: as §1

[9] = target: NSD3 (Homo sapiens, UniProt Q9BZ95); assay: HMT selectivity panel; conditions: NSD3, 50 µM compound
Excerpt: as §1

[10] = target: PRDM9 (Homo sapiens, UniProt Q9NQV7); assay: HMT selectivity panel; conditions: PRDM9, 50 µM compound
Excerpt: as §1

[11] = target: PRMT3 (Homo sapiens, UniProt O60678); assay: HMT selectivity panel; conditions: PRMT3, 50 µM compound
Excerpt: as §1

[12] = target: PRMT4 (Homo sapiens, UniProt Q86X55); assay: HMT selectivity panel; conditions: PRMT4, 50 µM compound
Excerpt: as §1

[13] = target: SET7/9 (Homo sapiens, UniProt Q8WTS6); assay: HMT selectivity panel; conditions: SET7/9, 50 µM compound
Excerpt: (§2) Assay conditions for selectivity experiments with a panel of histone
as §1

[14] = target: SUV39H2 (Homo sapiens, UniProt Q9H5I1); assay: HMT selectivity panel; conditions: SUV39H2, 50 µM compound
Excerpt: as §2, §1

[15] = RNA-seq, MV4;11, 3 µM, seven days
[16] = Fig S12b, individual mice, AS-99 group
[17] = normal mice, 30 mg/kg, i.p., q.d., 14 days
[18] = female, CD-1, mouse, plasma, other: i.v. and i.p.

PRMT3, sequence (O60678 whole entry, species assumed): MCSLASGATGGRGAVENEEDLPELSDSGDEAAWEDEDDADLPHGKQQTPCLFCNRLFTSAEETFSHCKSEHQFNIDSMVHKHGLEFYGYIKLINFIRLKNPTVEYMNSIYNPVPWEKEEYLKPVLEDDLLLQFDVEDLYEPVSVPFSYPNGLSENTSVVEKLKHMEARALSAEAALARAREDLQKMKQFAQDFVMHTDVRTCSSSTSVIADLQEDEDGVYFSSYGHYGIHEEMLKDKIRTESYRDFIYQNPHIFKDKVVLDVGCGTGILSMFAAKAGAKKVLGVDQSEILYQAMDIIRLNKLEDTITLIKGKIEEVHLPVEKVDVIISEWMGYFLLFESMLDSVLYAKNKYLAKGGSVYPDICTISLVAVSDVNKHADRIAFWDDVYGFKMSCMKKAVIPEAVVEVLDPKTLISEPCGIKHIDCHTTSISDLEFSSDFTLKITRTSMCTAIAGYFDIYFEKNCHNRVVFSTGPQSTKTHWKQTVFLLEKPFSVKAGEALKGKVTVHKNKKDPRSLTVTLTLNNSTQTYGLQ
NSD1, sequence (Q96L73 whole entry, species assumed): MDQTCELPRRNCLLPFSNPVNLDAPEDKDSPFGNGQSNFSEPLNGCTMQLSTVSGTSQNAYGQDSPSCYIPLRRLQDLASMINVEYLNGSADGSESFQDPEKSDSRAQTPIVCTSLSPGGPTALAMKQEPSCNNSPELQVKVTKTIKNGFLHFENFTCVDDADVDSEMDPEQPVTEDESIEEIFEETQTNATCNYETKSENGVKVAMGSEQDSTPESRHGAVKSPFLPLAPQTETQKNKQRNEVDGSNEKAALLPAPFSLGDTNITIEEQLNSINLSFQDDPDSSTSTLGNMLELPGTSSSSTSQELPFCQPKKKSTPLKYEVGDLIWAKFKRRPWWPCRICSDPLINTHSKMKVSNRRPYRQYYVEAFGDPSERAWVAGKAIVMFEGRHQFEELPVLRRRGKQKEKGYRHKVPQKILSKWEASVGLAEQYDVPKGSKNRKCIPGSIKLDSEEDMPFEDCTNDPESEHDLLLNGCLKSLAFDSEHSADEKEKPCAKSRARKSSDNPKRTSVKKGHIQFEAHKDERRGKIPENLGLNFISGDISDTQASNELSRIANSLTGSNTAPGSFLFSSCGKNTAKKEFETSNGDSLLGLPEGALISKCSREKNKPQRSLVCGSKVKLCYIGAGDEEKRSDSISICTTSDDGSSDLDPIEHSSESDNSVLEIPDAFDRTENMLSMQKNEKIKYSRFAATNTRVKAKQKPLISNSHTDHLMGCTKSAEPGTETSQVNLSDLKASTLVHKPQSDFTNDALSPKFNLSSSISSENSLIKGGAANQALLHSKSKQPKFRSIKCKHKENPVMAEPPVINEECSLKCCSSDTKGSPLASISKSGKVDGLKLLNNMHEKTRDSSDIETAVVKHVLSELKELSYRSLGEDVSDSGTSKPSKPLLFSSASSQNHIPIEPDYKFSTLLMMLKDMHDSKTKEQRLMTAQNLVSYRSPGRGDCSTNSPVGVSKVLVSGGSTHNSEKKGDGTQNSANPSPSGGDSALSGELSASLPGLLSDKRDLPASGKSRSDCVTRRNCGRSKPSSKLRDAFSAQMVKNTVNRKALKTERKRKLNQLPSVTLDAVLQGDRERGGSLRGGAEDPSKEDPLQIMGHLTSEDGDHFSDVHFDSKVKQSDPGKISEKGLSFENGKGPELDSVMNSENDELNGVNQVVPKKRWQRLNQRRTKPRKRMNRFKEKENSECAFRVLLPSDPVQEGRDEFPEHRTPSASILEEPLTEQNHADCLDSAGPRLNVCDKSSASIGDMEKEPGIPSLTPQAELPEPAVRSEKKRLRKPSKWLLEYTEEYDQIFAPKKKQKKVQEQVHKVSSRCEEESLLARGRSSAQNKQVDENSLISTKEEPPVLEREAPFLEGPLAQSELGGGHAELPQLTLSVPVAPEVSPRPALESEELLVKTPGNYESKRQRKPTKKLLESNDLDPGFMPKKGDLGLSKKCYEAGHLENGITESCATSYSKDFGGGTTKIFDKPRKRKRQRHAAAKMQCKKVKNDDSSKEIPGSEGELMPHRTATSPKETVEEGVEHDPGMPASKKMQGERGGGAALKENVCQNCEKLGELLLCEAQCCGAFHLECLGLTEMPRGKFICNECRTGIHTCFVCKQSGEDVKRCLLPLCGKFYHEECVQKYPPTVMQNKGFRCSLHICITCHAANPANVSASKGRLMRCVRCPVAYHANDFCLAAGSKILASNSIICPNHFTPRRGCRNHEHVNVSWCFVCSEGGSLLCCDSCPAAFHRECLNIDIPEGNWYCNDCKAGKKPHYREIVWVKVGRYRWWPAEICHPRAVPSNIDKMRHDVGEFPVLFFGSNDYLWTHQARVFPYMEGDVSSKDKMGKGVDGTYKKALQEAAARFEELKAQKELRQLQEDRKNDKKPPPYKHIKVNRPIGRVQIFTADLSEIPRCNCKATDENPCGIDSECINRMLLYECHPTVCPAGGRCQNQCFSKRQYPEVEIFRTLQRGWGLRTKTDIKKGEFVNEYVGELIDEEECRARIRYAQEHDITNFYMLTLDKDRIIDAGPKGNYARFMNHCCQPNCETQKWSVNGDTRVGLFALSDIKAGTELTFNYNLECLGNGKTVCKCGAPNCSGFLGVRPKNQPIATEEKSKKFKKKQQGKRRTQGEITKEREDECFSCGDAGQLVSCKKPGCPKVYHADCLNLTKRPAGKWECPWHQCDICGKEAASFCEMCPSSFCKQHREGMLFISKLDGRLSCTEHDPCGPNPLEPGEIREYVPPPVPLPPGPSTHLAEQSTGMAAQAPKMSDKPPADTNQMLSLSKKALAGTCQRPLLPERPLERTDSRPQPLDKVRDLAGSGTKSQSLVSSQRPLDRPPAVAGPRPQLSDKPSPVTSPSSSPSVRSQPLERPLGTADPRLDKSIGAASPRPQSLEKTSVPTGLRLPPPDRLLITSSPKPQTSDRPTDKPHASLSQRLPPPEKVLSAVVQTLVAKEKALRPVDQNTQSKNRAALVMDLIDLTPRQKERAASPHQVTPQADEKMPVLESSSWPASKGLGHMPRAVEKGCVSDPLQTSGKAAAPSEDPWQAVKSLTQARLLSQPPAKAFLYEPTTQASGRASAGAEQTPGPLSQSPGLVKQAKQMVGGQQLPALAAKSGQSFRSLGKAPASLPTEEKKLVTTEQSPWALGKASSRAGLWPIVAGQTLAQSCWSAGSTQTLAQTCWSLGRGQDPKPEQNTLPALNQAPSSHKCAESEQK
NSD3, sequence (Q9BZ95 whole entry, species assumed): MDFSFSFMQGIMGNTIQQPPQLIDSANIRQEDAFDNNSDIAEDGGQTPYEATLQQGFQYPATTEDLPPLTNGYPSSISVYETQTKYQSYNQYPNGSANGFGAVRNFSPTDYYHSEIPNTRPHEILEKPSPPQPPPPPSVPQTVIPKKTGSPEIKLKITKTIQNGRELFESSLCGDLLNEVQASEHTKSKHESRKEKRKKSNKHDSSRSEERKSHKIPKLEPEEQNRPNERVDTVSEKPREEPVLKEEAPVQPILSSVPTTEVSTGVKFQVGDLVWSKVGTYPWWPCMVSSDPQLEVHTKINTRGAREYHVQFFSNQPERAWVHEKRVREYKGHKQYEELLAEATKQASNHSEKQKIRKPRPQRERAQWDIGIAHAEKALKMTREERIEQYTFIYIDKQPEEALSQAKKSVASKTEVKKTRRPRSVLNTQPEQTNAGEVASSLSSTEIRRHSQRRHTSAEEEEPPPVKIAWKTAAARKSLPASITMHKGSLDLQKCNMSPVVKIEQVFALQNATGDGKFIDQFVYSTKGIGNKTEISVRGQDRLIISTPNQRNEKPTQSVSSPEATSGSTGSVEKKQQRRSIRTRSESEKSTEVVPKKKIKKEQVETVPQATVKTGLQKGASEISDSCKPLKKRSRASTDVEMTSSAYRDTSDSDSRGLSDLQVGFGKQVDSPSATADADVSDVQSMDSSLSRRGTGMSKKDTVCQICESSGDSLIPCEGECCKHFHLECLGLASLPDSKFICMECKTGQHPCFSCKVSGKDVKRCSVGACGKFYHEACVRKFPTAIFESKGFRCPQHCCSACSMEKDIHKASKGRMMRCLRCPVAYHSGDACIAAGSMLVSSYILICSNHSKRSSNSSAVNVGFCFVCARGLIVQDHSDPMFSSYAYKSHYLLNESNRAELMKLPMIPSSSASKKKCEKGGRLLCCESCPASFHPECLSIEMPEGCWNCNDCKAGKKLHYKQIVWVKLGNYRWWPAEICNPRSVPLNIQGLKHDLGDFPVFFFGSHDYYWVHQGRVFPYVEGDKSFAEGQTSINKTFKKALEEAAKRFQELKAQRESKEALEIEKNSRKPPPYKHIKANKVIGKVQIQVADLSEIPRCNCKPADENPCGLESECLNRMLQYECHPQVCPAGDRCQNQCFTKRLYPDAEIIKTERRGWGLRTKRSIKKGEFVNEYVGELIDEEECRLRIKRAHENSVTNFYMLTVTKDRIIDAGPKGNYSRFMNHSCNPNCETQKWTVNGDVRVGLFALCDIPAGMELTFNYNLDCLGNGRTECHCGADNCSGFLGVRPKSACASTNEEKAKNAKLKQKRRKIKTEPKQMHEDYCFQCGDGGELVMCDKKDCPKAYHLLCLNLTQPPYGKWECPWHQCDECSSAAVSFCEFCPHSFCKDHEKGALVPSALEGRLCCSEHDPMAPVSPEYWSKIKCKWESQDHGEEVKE
SET7/9, sequence (Q8WTS6 whole entry, species assumed): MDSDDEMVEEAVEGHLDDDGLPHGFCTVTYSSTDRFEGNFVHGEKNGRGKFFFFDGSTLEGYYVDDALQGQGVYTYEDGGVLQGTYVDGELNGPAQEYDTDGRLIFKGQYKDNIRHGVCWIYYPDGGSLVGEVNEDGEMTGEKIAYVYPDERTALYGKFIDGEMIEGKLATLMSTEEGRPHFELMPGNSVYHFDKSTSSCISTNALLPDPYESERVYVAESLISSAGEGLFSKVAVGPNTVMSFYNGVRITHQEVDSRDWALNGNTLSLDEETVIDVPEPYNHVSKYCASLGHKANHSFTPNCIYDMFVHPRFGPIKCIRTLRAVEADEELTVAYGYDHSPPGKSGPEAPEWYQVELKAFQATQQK

With `CN1CC(C(=O)NCc2ccc3c(-c4cccc(C(N)=S)c4)cn(C4CCN(S(=O)(=O)C(F)(F)F)CC4)c3c2)C1` [AS-99] the “apoptosis in K562 cells” value [1] was “not in the K562 cells”, the “K562 % Annexin V/PI+ cells” value ([1]; 2 uM) was 10.85% and 7.41% and 3.78% and the “K562 % Annexin V/PI+ cells” value ([1]; 4 uM) was 7.07% and 5.34% and 5.33%. For the same compound, the “K562 % Annexin V/PI+ cells” value ([1]; 6 uM) was 4.92% and 4.78% and 6.63%, the “K562 % Annexin V/PI+ cells” value ([1]; 8 uM) was 5.64% and 10.26% and 7.32% and the “GSEA: transcriptional programs driven by MLL fusion proteins and HOXA9” value ([2]; MV4;11) was “downregulation of transcriptional programs driven by MLL fusion proteins and HOXA9”. For the same compound, the “number of downregulated genes” value [2, 15] was 323, the “number of up-regulated genes” value [2, 15] was 75 and the “reduction in the bioluminescence signal versus vehicle” value ([3]; 30 mg/kg, i.p., q.d., 14 days) was 65%. For the same compound, the average radiance ([3]; day 6 after transplantation (start of treatment)) was 6110 p/s/cm2/sr and 4700 p/s/cm2/sr and 4630 p/s/cm2/sr and 3760 p/s/cm2/sr and 10800 p/s/cm2/sr and 52500 p/s/cm2/sr and 8750 p/s/cm2/sr, the average radiance ([3]; day 13 after transplantation) was 199000 p/s/cm2/sr and 275000 p/s/cm2/sr and 78900 p/s/cm2/sr and 62500 p/s/cm2/sr and 231000 p/s/cm2/sr and 5680 p/s/cm2/sr and 144000 p/s/cm2/sr and the average radiance ([3]; day 19 after transplantation (last day of treatment)) was 1090000 p/s/cm2/sr (2×) and 1280000 p/s/cm2/sr and 524000 p/s/cm2/sr and 386000 p/s/cm2/sr and 8110 p/s/cm2/sr and 9660 p/s/cm2/sr. For the same compound, the B cells [4, 16] was 42.2% and 44% and 40.1% and 47.1% and 47.9% and 45.4% and 35.4% and 37.2% and 39.4%, the Myeloid cells [4, 16] was 16.7% and 17.1% (2×) and 23.3% and 12.6% and 14.8% and 9.84% and 22.2% and 17.7% and the T cells [4, 16] was 27.1% and 24.3% and 22.5% and 18.4% and 27% and 27.8% and 32.5% and 30% and 29.5%. For the same compound, the T-cells [4, 17] was “unaffected”, the “myeloid and B-cells” value [4, 17] was “slightly changed (increased and reduced, respectively)” and the AUC ([5]; female, CD-1, mouse, plasma, ip, 30 mg/kg) was 10700 ng·h/mL. The concentration at 0.167 h ([5]; female, CD-1, mouse, plasma, ip, 30 mg/kg, blood plasma level of AS-99, i.p., time 0.167 h) was 9800 nM, the concentration at 0.25 h ([5]; female, CD-1, mouse, plasma, ip, 30 mg/kg, blood plasma level of AS-99, i.p., time 0.25 h) was 9110 nM and the concentration at 0.5 h ([5]; female, CD-1, mouse, plasma, ip, 30 mg/kg, blood plasma level of AS-99, i.p., time 0.5 h) was 6580 nM. It also gave a concentration at 1 h ([5]; female, CD-1, mouse, plasma, ip, 30 mg/kg, blood plasma level of AS-99, i.p., time 1 h) of 6110 nM, a concentration at 2 h ([5]; female, CD-1, mouse, plasma, ip, 30 mg/kg, blood plasma level of AS-99, i.p., time 2 h) of 2760 nM and a concentration at 4 h ([5]; female, CD-1, mouse, plasma, ip, 30 mg/kg, blood plasma level of AS-99, i.p., time 4 h) of 840 nM. It also gave a concentration at 7 h ([5]; female, CD-1, mouse, plasma, ip, 30 mg/kg, blood plasma level of AS-99, i.p., time 7 h) of 300 nM, a concentration at 16 h ([5]; female, CD-1, mouse, plasma, ip, 30 mg/kg, blood plasma level of AS-99, i.p., time 16 h) of 84 nM and a concentration at 24 h ([5]; female, CD-1, mouse, plasma, ip, 30 mg/kg, blood plasma level of AS-99, i.p., time 24 h) of 33.7 nM. For the same compound, the AUC ([5]; female, CD-1, mouse, plasma, iv, 15 mg/kg) was 9700 ng·h/mL, the concentration at 0.083 h ([5]; female, CD-1, mouse, plasma, iv, 15 mg/kg, blood plasma level of AS-99, i.v., time 0.083 h) was 25800 nM and the concentration at 0.167 h ([5]; female, CD-1, mouse, plasma, iv, 15 mg/kg, blood plasma level of AS-99, i.v., time 0.167 h) was 10200 nM. For the same compound, the concentration at 0.25 h ([5]; female, CD-1, mouse, plasma, iv, 15 mg/kg, blood plasma level of AS-99, i.v., time 0.25 h) was 6620 nM, the concentration at 0.5 h ([5]; female, CD-1, mouse, plasma, iv, 15 mg/kg, blood plasma level of AS-99, i.v., time 0.5 h) was 5200 nM and the concentration at 1 h ([5]; female, CD-1, mouse, plasma, iv, 15 mg/kg, blood plasma level of AS-99, i.v., time 1 h) was 1780 nM. For the same compound, the concentration at 2 h ([5]; female, CD-1, mouse, plasma, iv, 15 mg/kg, blood plasma level of AS-99, i.v., time 2 h) was 854 nM, the concentration at 4 h ([5]; female, CD-1, mouse, plasma, iv, 15 mg/kg, blood plasma level of AS-99, i.v., time 4 h) was 268 nM and the concentration at 7 h ([5]; female, CD-1, mouse, plasma, iv, 15 mg/kg, blood plasma level of AS-99, i.v., time 7 h) was 126 nM. The concentration at 16 h ([5]; female, CD-1, mouse, plasma, iv, 15 mg/kg, blood plasma level of AS-99, i.v., time 16 h) was 24.7 nM, the concentration at 24 h ([5]; female, CD-1, mouse, plasma, iv, 15 mg/kg, blood plasma level of AS-99, i.v., time 24 h) was 15.1 nM and the Cmax [5, 18] was over 10000 nM. For the same compound, the half-life [5, 18] was 5 to 6 h, the “blood plasma level of AS-99” value ([5]; i.p., time 0.167 h) was 8805 nM and 7458 nM and the “blood plasma level of AS-99” value ([5]; i.p., time 0.25 h) was 6902 nM and 8721 nM. The “blood plasma level of AS-99” value ([5]; i.p., time 0.5 h) was 6683.5 nM and 5152 nM, the “blood plasma level of AS-99” value ([5]; i.p., time 1 h) was 5269 nM and 5185 nM and the “blood plasma level of AS-99” value ([5]; i.p., time 2 h) was 3266 nM and 1801 nM. The “blood plasma level of AS-99” value ([5]; i.p., time 4 h) was 1054 nM and 710.4 nM, the “blood plasma level of AS-99” value ([5]; i.p., time 7 h) was 351.9 nM and 247.5 nM and the “blood plasma level of AS-99” value ([5]; i.p., time 16 h) was 71.89 nM and 86.7 nM. For the same compound, the “blood plasma level of AS-99” value ([5]; i.p., time 24 h) was 43.77 nM and 41.41 nM, the “blood plasma level of AS-99” value ([5]; i.v., time 0.083 h) was 37878.8 nM and the “blood plasma level of AS-99” value ([5]; i.v., time 0.167 h) was 7643.1 nM. For the same compound, the “blood plasma level of AS-99” value ([5]; i.v., time 0.25 h) was 5774 nM, the “blood plasma level of AS-99” value ([5]; i.v., time 0.5 h) was 4798 nM and the “blood plasma level of AS-99” value ([5]; i.v., time 1 h) was 2559 nM. The “blood plasma level of AS-99” value ([5]; i.v., time 2 h) was 611.1 nM, the “blood plasma level of AS-99” value ([5]; i.v., time 4 h) was 217.2 nM and the “blood plasma level of AS-99” value ([5]; i.v., time 7 h) was 94.11 nM. For the same compound, the “blood plasma level of AS-99” value ([5]; i.v., time 16 h) was 29.8 nM, the “blood plasma level of AS-99” value ([5]; i.v., time 24 h) was 15.32 nM and the activity at 50 µM [6] was 101%. For the same compound, the “% activity” value ([6]; 50 µM) was 119.029%, the “% activity” value [7] was 79.3828% and 71.6922% and the activity at 50 µM [8] was 112%. The “% activity” value ([8]; 50 µM) was 113.763%, the activity at 50 µM [9] was 145% and the “% activity” value ([9]; 50 µM) was 128.837%. For the same compound, the activity at 50 µM [10] was 96.8%, the “% activity” value ([10]; 50 µM) was 100.979% and the activity at 50 µM [11] was 106%. The “% activity” value ([11]; 50 µM) was 114.852%, the activity at 50 µM [12] was 103% and the “% activity” value ([12]; 50 µM) was 110.439%. For the same compound, the activity at 50 µM [13] was 81.7%, the “% activity” value ([13]; 50 µM) was 85.3173% and the activity at 50 µM [14] was 88.7%. The “% activity” value ([14]; 50 µM) was 78.6146%.
